Source: patent US5500424A, “Pyrimidine and pyridine derivatives, their production and use” (Nihon Nohyaku Co., Ltd., priority 1993, dated 1996)

Key:
[1] = molecular target: T1, acyl-CoA:cholesterol acyltransferase (ACAT) (Oryctolagus cuniculus, UniProt G1SFD9); experiment: Inhibitory activity on acyl-CoA:cholesterol acyltransferase (ACAT); type: biochemical, white rabbit; settings: rabbit intestinal mucosa microsomes, read-out: Inhibition rate
T1 construct: The intestinal mucosa of a white rabbit was homogenized and microsomal fraction was obtained; from tissue; host or cells: white rabbit intestinal mucosa, microsomal fraction
T1 sequence (G1SFD9 1-524): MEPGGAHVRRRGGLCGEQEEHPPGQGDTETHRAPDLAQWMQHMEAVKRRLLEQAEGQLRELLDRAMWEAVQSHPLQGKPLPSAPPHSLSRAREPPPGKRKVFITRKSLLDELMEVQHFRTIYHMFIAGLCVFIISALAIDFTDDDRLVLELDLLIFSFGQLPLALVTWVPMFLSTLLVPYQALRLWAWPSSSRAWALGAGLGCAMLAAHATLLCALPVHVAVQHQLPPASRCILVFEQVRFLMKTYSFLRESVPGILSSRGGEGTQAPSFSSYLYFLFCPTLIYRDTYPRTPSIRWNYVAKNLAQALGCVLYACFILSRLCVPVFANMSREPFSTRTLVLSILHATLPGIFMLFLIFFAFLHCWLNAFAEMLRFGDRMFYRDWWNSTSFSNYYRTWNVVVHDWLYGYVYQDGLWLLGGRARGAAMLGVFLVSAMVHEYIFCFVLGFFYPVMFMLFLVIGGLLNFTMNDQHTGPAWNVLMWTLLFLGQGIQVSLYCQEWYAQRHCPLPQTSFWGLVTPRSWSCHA
Procedure: Inhibitory activity on acyl-CoA:cholesterol acyltransferase (ACAT)
The enzyme used in the test was prepared according to the method of Heider et al. [J. Lipid, Res. 24, 1127 (1983)]. The intestinal mucosa of a white rabbit was homogenized and microsomal fraction was obtained by stepwise centrifugation. The microsomal fraction was suspended in 0.154M phosphate buffer (pH 7.4) and stored at -80° C. until use.
ACAT activity was determined by a modification of the method of Helgerud et al. [J. Lipid Res. 22, 271 (1981)] by measuring radioactivity incorporated into cholesterol esters from [1-^14 C]oleyl-CoA, as an indication. As to the ACAT-inhibitory activity of each compound to be tested, the inhibition rate was calculated by the following equation. [formula]

[2] = tested on: hamsters fed on a high-cholesterol diet; experiment: Serum cholesterol lowering activity in hamsters fed on a high-cholesterol diet; type: in vivo, Male Syrian hamsters; settings: Mesocricetus auratus, 30 mg/kg per day for 4 days, 24 hours after last administration, read-out: Reduction rate of total serum cholesterol concentration
Procedure: Serum cholesterol lowering activity in hamsters fed on a high-cholesterol diet
Male Syrian hamsters of 10-week-old were divided into three groups. The first group (normal group) was fed an ordinary diet for 4 days. The second group (control group) was fed a high cholesterol diet (containing 0.5% cholesterol and 8.0% coconut oil) for 4 days. The third group (treated group) was fed a high cholesterol diet and was treated with a compound for 4 days. Simultaneously with the beginning of the above feeding, the compound was suspended in a 0.5% carboxymethyl cellulose solution and administered to the treated group, in a dose of 30 mg (in terms of the compound) per kg of body weight per day for 4 days. A 0.5% carboxymethyl cellulose solution was also administered to the normal group and the control group in the same manner as above.
After 24 hours of the last administration, blood was collected and the cholesterol concentration in serum was measured by an enzymatic method. The reduction rate of the total serum cholesterol concentration was calculated from values obtained for the three groups by the following equation. [formula] wherein A: the serum cholesterol concentration of the control group.
B: the serum cholesterol concentration of the treated group.
C: the serum cholesterol concentration of the normal group.

[3] = tested on: cholesterol esterification in macrophages (J774 A.I cells); experiment: Inhibitory effect on cholesterol esterification in macrophages; type: cell-based; settings: Mus musculus, AcLDL-loaded J774 A.I cells, read-out: Inhibition rate
Procedure: Inhibitory effect on cholesterol esterification in macrophages
The test was carried out by a modification of the method of Goldstein et al. [Pro. Nat. Acad. Sci. U.S.A. 71, 4288 (1974)]. J774 A.I cells, the mouse macrophage-like cell line, were suspended in Dulbecco's modified Eagle's medium (DMEM) containing 10% fetal calf serum (FCS), in a proportion of 3×10^5 cells per 2 ml and were seeded into 6-well plates. The cells were cultured under a humidified atmosphere of 95% air/5% CO2 at 37° C. for 24 hours. The medium was replaced by 1 ml of DMEM containing 10% of FCS and 50 μg/ml of acetylated human low density lipoprotein (AcLDL), followed by culturing for 16 hours. Five microliters of each compound dissolved in dimethyl sulfoxide was added to the medium, and the cells were cultured for another 2 hours. Then, [^14 C]oleate (2×10^6 dpm/well) bovine serum albumin complex was added in the medium. After 2 hours of culture, cells were collected and the cholesterol-esterifying activity was determined by measuring radioactivity incorporated into cholesterol esters in the cells. The recovery of the cholesterol esters was determined by the addition of [^3 H]cholesteryl oleate, and the esterifying activity was corrected using the recovery. As to the inhibitory activity on cholesterol esterification of the compound to be tested, the inhibition rate was calculated by the following equation. [formula] wherein A: the cholesterol-esterifying activity of AcLDL-loaded cells to which the compound to be tested was added.
B: the cholesterol-esterifying activity of AcLDL-loaded cells to which dimethyl sulfoxide was added.

| Structure (SMILES) | inhibition at 0.01 µM [1] | inhibition at 1 µM ([1]; 1 μM) | inhibition in vivo at 30 mg/kg [2] | inhibition at 0.3 µM [3] | inhibition at 1 µM [3] |
| --- | --- | --- | --- | --- | --- |
| CCc1cccc(CC)c1NC(=O)Nc1cnc(-c2ccccc2)nc1-c1ccccc1C(F)(F)F [Compound 37, N-(2,6-Diethylphenyl)-N'-[2-phenyl-4-(2-trifluoromethylphenyl)pyrimidin-5-yl]urea] | 72.3% |  | 63.3% | 67.1% | 87.2% |
| CCc1cccc(CC)c1NC(=O)Nc1cnc(N2CCCCC2)nc1-c1ccccc1Cl [Compound 55, N-[4-(2-Chlorophenyl)-2-(N-piperidino)pyrimidin-5-yl]-N'-(2,6-diethylphenyl)urea] | 75.7% |  | 77.5% | 34.9% |  |

The next lines start with results.

| inhibition at 0.01 µM [1] | inhibition at 1 µM ([1]; 1 μM) | Structure (SMILES) | inhibition in vivo at 30 mg/kg [2] | inhibition at 0.3 µM [3] | inhibition at 1 µM [3] |
| --- | --- | --- | --- | --- | --- |
| 72.9% |  | Cc1ccccc1-c1nc(-c2ccccc2)ncc1NC(=O)Nc1c(C(C)C)cccc1C(C)C [Compound 36, N-(2,6-Diisopropylphenyl)-N'-[4-(2-methylphenyl)-2-phenylpyrimidin-5-yl]urea] | 63.4% | 51.6% |  |
| 67.6% | 99.5% | CC(C)c1cccc(C(C)C)c1NC(=O)Nc1cnc(-c2ccccc2)nc1-c1ccccc1Cl [Compound 15, N-[4-(2-Chlorophenyl)-2-phenylpyrimidin-5-yl]-N'-(2,6-diisopropylphenyl)urea] | 57.6% | 29.5% | 73.3% |
| 73.5% |  | CC(C)c1cccc(C(C)C)c1NC(=O)Nc1cnc(-c2ccccc2)nc1-c1ccccc1 [Compound 32, N-(2,6-Diisopropylphenyl)-N'-(2,4-diphenylpyrimidin-5-yl)urea] | 63.7% | 58% | 74.3% |
